According to a melting point compilation (Tetko et al.; mined from patent text by program, amines drawn as free bases though some values may be those of a salt):

Question: With `N#CCN(CC#N)CCN(CC#N)CC#N` as the compound, how does the melting point read?
Answer: 131 to 132 °C

Question: For `Oc1ccc(Oc2ccc3ccccc3n2)cc1`, which melting point is on record?
Answer: 177 °C

Question: With `c1cn(Cc2ccc3[nH]c(C4CC4)nc3c2)cn1` as the compound, how does the melting point read?
Answer: 184 °C

Question: With `Cc1csc(-c2cccnc2)n1` as the compound, how does the melting point read?
Answer: 42 to 43 °C

Question: With `C#CCOC(=O)N(I)C(C)C(=O)O` (stereo not given) as the compound, how does the melting point read?
Answer: 95 to 99 °C

Question: With `CC(=O)Nc1ccc(NC(=O)c2ccc3c(c2)NC(=O)C3(C)C)cc1` as the compound, how does the melting point read?
Answer: 294 to 295 °C

Question: With `CCOc1cccc(CC(=O)O)c1OCCCc1cc(OC(C)C)nn1Cc1ccc(Cl)cc1Cl` as the compound, how does the melting point read?
Answer: 132 to 133 °C

Question: For `CCCCCCCNC(=NC#N)Nc1cccnc1`, which melting point is on record?
Answer: 90 to 91 °C

Question: For `COc1ccc(S(=O)(=O)N(CCC(=O)N2CCC(C(=O)O)CC2)C(CCc2ccccc2)C(=O)NO)cc1` (stereo not given), which melting point is on record?
Answer: 85 to 92 °C

Question: With `CCCC[C@H](NC(=O)[C@H](CC(C)C)NC(=O)OCc1ccc(F)cc1)C(=O)CSCc1ccco1` as the compound, how does the melting point read?
Answer: 67 to 68 °C

Question: Which melting point does the source give for `CSc1ncc(CCc2cccnc2)c(=O)[nH]1` here?
Answer: 191 to 192 °C

Question: Which melting point does the source give for `COc1cccc(CN2Cc3cc(OC)c(O)cc3C(O)C2)c1` (stereo not given) here?
Answer: 137 to 138 °C

Question: Which melting point does the source give for `COc1cccc(Nc2nnc(Cc3ccncc3)c3ccccc23)c1` here?
Answer: 118 to 120 °C

Question: With `CCCCCS(=O)(=O)NC(=O)CCCc1ccc(OCCOC)cc1Oc1ncc(C(F)(F)F)cc1Cl` as the compound, how does the melting point read?
Answer: 96 to 97 °C

Question: For `FC(F)(F)c1ccc(-c2ccc3nncn3n2)cc1`, which melting point is on record?
Answer: 160 to 161 °C

Question: Which melting point does the source give for `Cc1cc(S(=O)(=O)c2ccc([N+](=O)[O-])cc2)cc(Br)n1` here?
Answer: 154 to 156 °C

Question: With `COc1cc(CCN2CCN(c3nsc4ccccc34)CC2)c(NC(=O)C=C(C)C)cc1OC` as the compound, how does the melting point read?
Answer: 58 °C

Question: For `Cn1cc(-c2ccccc2)c(=O)c(-c2cccc(OC(F)(F)C(F)F)c2)c1`, which melting point is on record?
Answer: 119 to 121 °C

Question: With `CCCc1c(OCCCOc2ccc3c(c2CCC)OC(CCC#N)CC3)ccc(C(C)=O)c1O` (stereo not given) as the compound, how does the melting point read?
Answer: 89 to 89.5 °C

Question: With `CC1(C)CC(S(C)(=O)=O)=NO1` as the compound, how does the melting point read?
Answer: 82 to 84 °C

Question: With `CC(=O)c1c(-c2ccccc2)sc(-c2ccncc2)c1C` as the compound, how does the melting point read?
Answer: 111 to 112 °C

Question: With `CN(CCC(Oc1ccc(S(=O)(=O)c2ccccc2)cc1)c1ccccc1)CC(=O)O` (stereo not given) as the compound, how does the melting point read?
Answer: 95 to 100 °C

Question: Which melting point does the source give for `COC(=O)c1cc(I)ccc1N(C)S(C)(=O)=O` here?
Answer: 105 to 106 °C

Question: For `COc1nc(NC(=O)Nc2ccccc2OC)nc(N(CCC(=O)O)Cc2cccc(C)c2)n1`, which melting point is on record?
Answer: 160 to 162 °C

Question: With `COC(=O)C=C(N)CC(=O)OC` as the compound, how does the melting point read?
Answer: 47 to 50 °C

Question: Which melting point does the source give for `CS(=O)(=O)c1cccc(NC(=O)c2cnn3c(C(F)F)cc(-c4ccc(C(F)(F)F)c(Cl)c4)nc23)c1` here?
Answer: 228 °C

Question: With `CCOC(=O)c1c(N2CCOCC2)c2ccc(C)nc2n(CC)c1=O` as the compound, how does the melting point read?
Answer: 129 to 131 °C

Question: Which melting point does the source give for `COc1ccc(-n2nc(OCC(F)(F)F)nc2-c2ccc(OC)nc2)cc1` here?
Answer: 82 to 83 °C

Question: For `CCOC(=O)CN1C(=O)C(NC(=O)Nc2ccc(Cl)cc2)N=C(c2ccccc2)c2ccccc21` (stereo not given), which melting point is on record?
Answer: 228 to 229 °C

Question: For `O=c1[nH]c2ccccc2cc1-c1csc(NS(=O)(=O)c2ccc(Cl)cc2)n1`, which melting point is on record?
Answer: > 300 °C

Question: For `Brc1ccc(N2CCN(CCCc3[nH]nc4c3CCCC4)CC2)cc1`, which melting point is on record?
Answer: 145 to 147 °C

Question: Which melting point does the source give for `COc1cc(-c2csnc2C)cc2oc(=O)c(C)c(C)c12` here?
Answer: 163 to 165 °C

Question: For `Cn1ccc2cc(NC(=O)c3cc4cccnc4n3Cc3cccc(F)c3)ccc21`, which melting point is on record?
Answer: 191 to 192 °C

Question: With `CC[C@@H]1O[C@](C#CC2CC2)(C(F)(F)F)c2cc(F)ccc2NC1=O` (relative stereo) as the compound, how does the melting point read?
Answer: 186 °C

Question: Which melting point does the source give for `O=c1[nH]c2cc(Cl)ccc2c(O)c1-c1cccc(Cc2ccccc2)c1` here?
Answer: 304 to 306 °C

Question: For `CC1(C)C(=O)Oc2ccc3ccc(Cn4ccnc4)cc3c21`, which melting point is on record?
Answer: 135 to 136 °C

Question: With `COc1ccc(C=CC(=O)O)cc1-c1cc2c(cc1OCCCCCCCO)C(C)(C)CCC2(C)C` as the compound, how does the melting point read?
Answer: 105 to 107 °C

Question: For `CC(C)(C)OC(=O)c1ccccc1NC(=O)CN1C(=O)c2ccccc2C1=O`, which melting point is on record?
Answer: 159 °C

Question: With `CN1C[C@H](c2cnccn2)OC1=O` as the compound, how does the melting point read?
Answer: 114 °C

Question: With `CCN1CCN2C1=Nc1ccc(Cl)cc1C2c1ccccc1` (stereo not given) as the compound, how does the melting point read?
Answer: 145 to 146 °C
